In article PMC6609034, “Unraveling the role of the secretor antigen in human rotavirus attachment to histo-blood group antigens” (PLoS Pathogens, 2019):

What was measured:
[1] = molecular target: VP8* from Rotarix strain (lineage I); assay: SPR interaction of VP8* with immobilized HBGAs; type: binding, human rotavirus
Method: (§1) The affinity assays were based on SPR and performed in a Biacore T100 instrument (GE Healthcare). H1 PAA-biotin and LNB PAA-biotin were diluted to a concentration of 1 mg/ml in water and captured with streptavidin present in a SA sensor chip (GE Healthcare). H1 was immobilized in channel 2 (630 RU) of the sensor chip and LNB was immobilized in channel 4 (624 RU). The channels 1 and 3 were used as the reference surfaces for channels 2 and 4, respectively. The immobilization process was performed by conditioning the sensor chip surface with three consecutive 1-minute injections of 1 M NaCl 50 mM NaOH before biotinylated ligands were immobilized at a flow rate of 15 μl/min. The affinity assays of VP8* polypeptides to biotinylated sugars were performed at 10°C using 1X HBS-EP^+ buffer (0.01 M HEPES pH 7.4, 0.15 M NaCl, 3 mM EDTA, 0.005% Surfactant P20), a flow rate of 5 μl/min with 2700 seconds of contact time and a dissociation time of 1800 seconds. The regeneration step consisted in a wash step with 10 mM Glycine-HCl pH 2 for 20 seconds at the same flow rate. The assays were performed with purified VP8* at different concentrations (45; 137; 411; 1,234; 3,703; 11,111; 33,333; 100,000 and 200,000 nM). Each run included three blanks without sample. The affinity data were obtained after analysis of sensorgrams performed with the BIAevaluation 2.0 software (GE Healthcare). Since multivalent oligosaccharides are immobilized on a sensor chip surface, avidity and rebinding effects can take place and apparent affinity constants (Kda) are calculated with this experimental setup. Kda values were obtained from the steady-state kinetics experiment as the ligand concentration needed to achieve a half-maximum binding at equilibrium. The experiments were made in triplicate. Graphical representation of signal/concentration curves were plotted using GraphPad Prism 6 for MacOsX.

[2] = molecular target: VP8* from the lineage IV strain (P[8]LIV); assay: SPR interaction of VP8* with immobilized HBGAs; type: binding, human rotavirus
Method: as §1

[3] = test system: VP8* P[8]c binding to the H1 antigen; assay: Binding blocking assay, immobilized H1 antigen; design: species or system human rotavirus; conditions: soluble sugar at 20 mM
Method: To confirm the binding of the VP8* from the P[8] genotype to the H type-1 precursor LNB, a blocking assay was performed using soluble LNB and its related disaccharide galacto-N-biose (Gal-β-1,3-GalNAc; GNB) produced and purified in our laboratory as previously described.
Streptavidin microtiter plates were coated with biotinylated H type-1 antigen or LNB at 2 μg/ml with water and incubated for 1 hour at 37°C, followed by an overnight incubation at 4°C. Blocking assays were performed in parallel, using glass tubes containing the P[8]c and P[8]Wa VP8* protein at their EC50 for each ligand and 20 mM of each of the soluble disaccharides (LNB and GNB) and monosaccharides (D-galactose, GlcNAc and GalNAc). A positive binding control without sugar was also included. The tubes containing the mixes of VP8* with sugars were maintained 1 hour at 37°C, followed by an overnight incubation at 4°C. The next day the coated streptavidin plates were washed with PBS-T, the VP8*-sugar solutions were added to the plates and incubated during 4 hours at 4°C. The plates were washed three times with PBS-T and detection of the interactions was performed as described above. The results are presented as the percentage (%) of binding of each condition compared to the binding of the positive binding control (without blocking sugar). All experiments were performed in triplicate.

[4] = test system: Wa DLP (double-layered particles); assay: ELISA-like glycan binding assay of rotavirus particles; design: species or system human rotavirus; conditions: DLP 10 to 0.078 μg/ml
Excerpt: (§2) African green monkey kidney epithelial cells (MA104 cell line; ATTC #CRL-2378.1) were used for the propagation of rotavirus Wa strain that belongs to the globally dominant human genotype G1P[8]. Briefly, ten MA104 cells confluent 150-cm^2 flasks (approximately 1.5 ×10^7 cells/flask) were infected with Wa strain at a multiplicity of infection (MOI) of ≤ 0.1 and processed as previously described. One hundred ml of medium with 1.5x10^8 virus/ml were obtained and the viral particles were concentrated by pelleting at 160,000 × g for 1 h at 4°C in a SW 41 rotor (Beckman). The viral pellet was resuspended in TNC buffer (20 mM Tris-HCl pH 8.0, 100 mM NaCl, 1 mM CaCl2) for triple-layered particles (TLP) or in TNE (20 mM Tris-HCl, pH 8.0, 100 mM NaCl, 1 mM EDTA) for double-layered particles (DLP).
(§3) An ELISA-like binding assay was employed to determine the binding ability of rotavirus TLP and DLP to the H type-1 antigen and to its precursor LNB. Streptavidin plates were coated with the biotinylated oligosaccharides as described above. After washing with PBS-T, two fold serial dilutions of TLPs and DLP were added to the plate (ranging from 10 μg/ml to 0.078 μg/ml). The TLP were always maintained in TNC-T (20 mM Tris, 100 mM NaCl, 1 mM CaCl2, 0.05% Tween 20, pH 7,4) buffer and the binding and washing steps were always carried out in this solution. DLPs assays were carried out in Tris-buffered saline buffer with Tween 20 (TBS-T, 20 mM Tris, 100 mM NaCl, 0.05% Tween 20, pH 7.4). TLP and DLP were incubated in the plate overnight at 4°C. After binding, the plates were washed three times in TNC-T (for TLP) or TBS-T (for DLP) with 0.05% Tween 20 (TNC-T and TBS-T), and a mouse anti-VP6 antibody was added at 1:100 in TNC-T or TBS-T and incubated 1 h at 37°C. The plates were then washed three times with TNC-T or TBS-T, and a HRP-conjugated anti-mouse IgG was added at 1:10.000 and incubated at 37°C for 1 h. […] Fluorescence units were recorded by a MultiScan microplate reader.

[5] = test system: Wa TLP (triple-layered particles); assay: as above; design: species or system human rotavirus; conditions: TLP 10 to 0.078 μg/ml
Excerpt: as §2, §3

SMILES | interaction by SPR [1] | interaction by SPR [2] | reduction in the binding to the H1 antigen [3] [%] | binding of rotavirus particles (ELISA-like) [4] | binding of rotavirus particles (ELISA-like) [5]
CC(=O)NC1C(O)OC(CO)C(O)C1OC1OC(CO)C(O)C(O)C1O (stereo not drawn) [LNB, Gal-β1,3-GlcNAc] | too low to be determined | too low to be determined | 24.2 | not | able to bind
CC(=O)NC1C(O)OC(CO)C(O)C1OC1OC(CO)C(O)C(O)C1OC1OC(C)C(O)C(O)C1O (stereo not drawn) [H1, Fuc-α1,2-Gal-β1,3-GlcNAc] | too low to be determined | too low to be determined | – | not | able to bind
